Key:
[1] = UV-vis absorption, fluorescence emission, absolute fluorescence quantum yield and fluorescence lifetime; type: physicochemical; details: for Δλ, Stokes shift / λem, maximum emission wavelength / τS, fluorescence lifetime: in dichloromethane; for UV-vis absorption maximum in PBS: phosphate-buffered solution (PBS); for molar extinction coefficient: at absorption peak about 710 nm, DCM
Procedure: First, the UV–vis absorption and fluorescence emission spectra of the series of compounds were measured and analyzed. […] Concurrently, the Stokes shifts of all four compounds were more than 60 nm (Figure 2a,b and Table 1), which could effectively improve the signal-to-noise ratio (SNR) of fluorescence compared to the ordinary TCy7. The fluorescence lifetimes of all four compounds were within 2 ns, indicating no delayed fluorescence generation (Figure 2c and Table 1). […]
Materials and Instrumentation
All the general chemicals used in this paper are purchased from Energy Chemical Co. and Innochem Chemical Co. unless otherwise specified. All solvents were […]
analytically pure. […]
All the other solvents and reagents used in this study were of analytical grade. All the BALB/c mice were purchased from Liaoning […]
III 500 spectrometers. Absorption and emission spectra for all the compounds were achieved on the Agilent Technologies CARY 60 UV -Vis spectrophotometer and VAEIAN CARY Eclipse fluorescence spectrop hotometer (Serial No. FL0812 -M018), […]
respectively. Unless otherwise specified, all spectroscopic tests were performed in a quartz cell (10×10 mm). Fluorescence quantum yield of all the compounds were measured on the HAMAMATSU absolute fluorescence quantum yield spectrometer (Serial No. C11347). Triplet lifetime of compounds were acquired on LP980 laser flash photolysis spectrometer (Edinburgh Instruments, U.K.). The cell confocal laser scanning microscope (CLSM) images were all obtained by using Olympus FV3000 confocal laser scanning microscope. […]
Figure 4, Figure S6 and Figure S7). The spin-orbital coupling (SOC) values between the S1/S1V and T2 were calculated with ORCA 4.13. Hole-Electron analysis was carried […]
ISC rate constants calculation […]
Triplet lifetime measurements
The triplet life of QTCy7-R was measured by LP980 laser flash photolysis spectrometer (Edinburgh Instruments Ltd.) in combination with a Nd:YAG laser (Surelite I-10, Continuum Electro-Optics, Inc.). The oxygen in the sample was removed by aerating nitrogen for 30 min. The samples (5 μM) were excited by a 610 nm laser pulse (1 Hz, 100 mJ per pulse, fwhm ≈ 7 ns) at 300 K. The triplet state decay kinetics were measured at the maximum absorption wavelengths of each compound.
Fluorescence lifetime and femtosecond time-resolved transient absorption spectra […]
The fluorescence lifetimes and femtosecond time-resolved transient absorption spectra of dyes were recorded on a freshly prepared samples using the time-correlated single photon counting (TCSPC) method (PicoQuant PicoHarp 300) at 300 K. The concentration is 10 μM, solvent is DCM.
Hepatoma carcinoma cells (HepG-2 cells), human mammary carcinoma (MCF-7) and mouse breast cancer cells (4T1) were maintained in Dulbecco’s modified Eagle’s

[2] = tested on: HepG2 cells; assay: MTT cytotoxicity assay, HepG2; type: cell-based, human; details: for surviving cells: HepG2, dark, concentration around 160 μM; for IC50: Homo sapiens
Description: To further quantitatively explore the in vitro anticancer potency of QTCy7-R, the methyl thiazolyltetrazolium (MTT) assay was employed to detect cell viability. […] Next, we evaluated the cytotoxicity under dark conditions of this series of compounds at high concentrations (Figure 9e), as due to the characteristics of mitochondrial accumulation, QTCy7-Me and QTCy7-Ph might lead to mitochondrial depolarization and apoptosis at high concentrations. However, its IC50 value could still reach about 60 μM, which was almost […] than those of all cyanine photosensitizers reported. […] The photocytotoxicity index value (dark IC50/light IC50) of QTCy7-Ac was >500, manifesting that QTCy7-Ac is a PS with high efficacy but low cytotoxicity, which is extremely promising in clinical application. […]
Cytotoxicity was tested by the reduction of methyl thiazolyl tetrazolium to formazan by succinic acid dehydrogenase in the mitochondria of living cells (MTT assay). HepG2 cells, MCF7 cells and 4T1 cells were seeded to 96-well microplates (Nunc, Denmark) with a density of 1 × 10^5 cells/mL cells in 100 μL DMEM medium and incubated at 37 °C for 24 h. When the cell density reached about 70%, the QTCy7-R with different concentrations (4, 3, 2, 1.5, 1, 0.75, 0.5, 0.25, 0 μM) in PBS were added to the wells of cells in dark condition, respectively. For light groups, the cell incubation conditions were the same as those of the dark group and the cells were further incubated for 2 h, subsequently, the cells were subjected to 660 nm irradiation (20 mW/cm2) for different time (10 min, 5 min and 2.5 min) corresponding to different light doses (12 J/cm2, 6 J/cm2 and 3 J/cm2). Then all the cells were incubated for 12 h, after which the MTT solution in DMEM (0.5 mg/ml, 100 μL) was added to each well and the cells were incubated at 37 °C for another 4 h. The MTT solution was carefully removed and 100 μL DMSO was added to dissolve formazan, and the absorbance of each well was measured by a multifunctional microplate reader at 570 nm and 630 nm. The cell viability was obtained by the following equation: […]
Where “OD” represent the absorbance at 570 nm and 630 nm, “ps” and “control” represent experimental groups and control groups, respectively. […]

[3] = HepG2, light or radiation study, HepG2, 660 nm irradiation 12 J/cm^2

SMILES | ΦF, absolute fluorescence quantum yield [1] [%] | Δλ, Stokes shift [1] [nm] | λem, maximum emission wavelength [1] [nm] | τS, fluorescence lifetime [1] [ns] | UV-vis absorption maximum in PBS [1] [nm] | photocytotoxicity index (dark IC50/light IC50) ([2]; HepG2) | surviving cells [2] | IC50 ([2]; HepG2, light or radiation study, HepG2, 660 nm irradiation 3 J/cm^2) [nM] | IC50 ([2]; HepG2, light or radiation study, HepG2, 660 nm irradiation 6 J/cm^2) [nM] | IC50 [2, 3] [nM] | enhancement compared with commercial Ce6 photosensitizer ([2]; cell destruction at low light doses) [fold] | molar extinction coefficient [1] | IC50 ([2]; HepG2, HepG2, dark conditions) [nM]
CCOC(=O)C1=C/C(=C\C=C2/Sc3ccccc3N2CC)C(=O)C(/C=C/c2sc3ccccc3[n+]2CC)=C1 [QTCy7-Ac] | 31.4 | 67 | 703 | 1.97 | 610 | > 500 | 70–80% | ~2000 | ~1200 | ~300 | 11 | – | –
CCN1/C(=C/C=C2\C=C(C=O)C=C(/C=C/c3sc4ccccc4[n+]3CC)C2=O)Sc2ccccc21 [QTCy7-CHO] | 28.0 | 60 | 690 | 1.82 | 552 | – | 70–80% | – | – | ~1800 | – | – | –
CCN1/C(=C/C=C2\C=C(C)C=C(/C=C/c3sc4ccccc4[n+]3CC)C2=O)Sc2ccccc21 [QTCy7-Me] | 16.7 | 66 | 780 | 1.70 | 701 | – | – | – | – | ~900 | – | approximately 4 × 10^4 | ~60000
CCN1/C(=C/C=C2\C=C(c3ccccc3)C=C(/C=C/c3sc4ccccc4[n+]3CC)C2=O)Sc2ccccc21 [QTCy7-Ph] | 17.2 | 72 | 783 | 1.90 | 613 | – | – | – | – | ~300 | – | approximately 4 × 10^4 | ~60000
